The assay deals with annulus fibrosis of the defective disc. Put plainly: Injection of the composition into the annulus fibrosis of a patient with degenerative disc disease. The assay is classed as in vivo, human. The note with it: patient with transverse annulus fibrosis tear between fifth lumbar and sacrum; F2A4-K—NS in hyaluronic acid carrier injected by syringe. From the text:
A syringe containing the synthetic molecule F2A4-K—NS and a hyaluronic acid carrier is used to inject the composition into the annulus fibrosis of the defective disc. […] In the above example, collagen, heparin sulfate or propylene glycol is substituted for hyaluronic acid, to form gel carriers, with substantially similar results.

On to “H—YRSRKYSSWYVALKRK(H—YRSKYSSWYVALKR)-Ahx-Ahx-Ahx-RKRLDRIAR—NH2 [F2A4-K—NS]”, for which the “angiogenesis at the site of the annulus fibrosis defect” value is “promotes angiogenesis” and the “degeneration of the disc / closure of the annulus fibrosis tear” value is “prevents further degeneration of the disc”.

The record behind these values is patent US20080255041A1, “Treatment of annulus fibrosis defects” (EBI, L.P., priority 2007, published 2008).
